# Source: patent US20070093420A1, “Therapy procedure for drug delivery for trigeminal pain” (priority 2005, published 2007)
# What was measured:
# Assay type in all cases: in vivo, Sprague-Dawley rats
# [1] = test system: pain sensing nerve cells in the trigeminal ganglion; test: Nerve impulses of single pain sensing nerve cells in the trigeminal ganglion in response to noxious laser pulses to the face; conditions: rat, 10 nmoles applied to the nose
# Protocol: Sprague-Dawley rats (Charles River Laboratories) were anesthetized with isofluorane and a platinum electrode was inserted transcranially into the trigeminal ganglion. Nerve impulses (action potential) were recorded from single pain sensing nerve cells in the trigeminal ganglion in response to application of noxious laser pulses to the face of the rats. After recording responses to several identical laser pulses, 10 nmoles of oxytocin was applied to the nose of the rats. Thereafter, identical laser pulses were once again applied and recorded.
# [2] = test system: trigeminal nucleus caudalis wide dynamic range (WDR) neurons; test: Electrical stimulation-induced responses of trigeminal nucleus caudalis WDR neurons, single unit extracellular recording; conditions: rat
# Protocol: Male Sprague-Dawley rats (Charles River Laboratories) were anesthetized with isoflurane and used in the following experiments. In the anesthetized rats, single unit, extracellular recordings were performed in trigeminal nucleus caudalis while stimulating the ipsilateral facial skin with constant-current bipolar electrical stimulation. Epoxylate-insulated, tungsten microelectrodes (10 MOhm) were used under stereotaxic coordinate control.
# Shown are responses (action potentials per 30 stimuli) to repeated stimulation of a rat's face before oxytocin administration (pre-oxytocin). After administration with oxytocin at approximately 0.1 IU, responses were recorded every five minutes for 65 minutes. A second administration of oxytocin at the same dosage was administered at approximately 70 minutes after the first dose. The approximate site of the administration of the electrical stimulation is indicated by the black spot on a map of the rat's face (FIG. 3B).
# [3] = test system: second-order neurons in the trigeminal nucleus caudalis; test: Electrical stimulus-induced windup of trigeminal nucleus caudalis neurons; conditions: rat, intranasal 0.025 ml of 0.05 mg/ml
# Description: Male Sprague-Dawley rats (Charles River Laboratories) were anesthetized with isoflurane and used in the following experiments. […] Needle electrodes were inserted subcutaneously at the site indicated in FIG. 5A by the black spot on the rat's head, and the skin was stimulated at 0.66 Hz, 2 msec duration, 3× C-fiber threshold for >25 times.
# [4] = test system: trigeminal nucleus caudalis wide dynamic range (WDR) neurons; test: Long-pulse laser-induced responses of trigeminal nucleus caudalis WDR neurons; conditions: rat, intranasal 0.025 ml of 0.05 mg/ml
# Protocol: Male Sprague-Dawley rats (Charles River Laboratories) were anesthetized with isoflurane and used in the following experiments. In the anesthetized rats, single unit, extracellular recordings were performed in trigeminal nucleus caudalis while stimulating the ipsilateral facial skin with diode laser or constant-current bipolar electrical stimulation. Epoxylate-insulated, tungsten microelectrodes (10 MOhm) were used under stereotaxic coordinate control. […] Shown are responses (action potentials per second) to an 8 second-duration, 425 mA intensity laser stimulus to the site indicated by the black spot on a map of the rat's face (FIG. 4E).
# [5] = Withdrawal latencies after noxious laser thermal stimulation of ears or hindpaws after intranasal administration; conditions: rat, intranasal 10 nmoles/kg, tested from five minutes after final application
# Description: One way to test activity of an analgesic agent in a rat model is by treatment-induced changes in latencies (times) of withdrawal in response to noxious heating of the skin, typically using an ear, the face or a hindpaw. Thus, application of coherent or non-coherent (non-laser) radiant heat to the ear, the face or hindpaw will elicit rapid withdrawal movements. […] Transmucosal or transdermal administration of analgesic agents to the trigeminal nerve to reduce trigeminal nerve-associated pain can be tested for regional and/or systemic analgesia. The rostral external part of a rat's ear is innervated by a branch of the mandibular nerve, itself a branch of the trigeminal nerve, thus after treatment an increase in latency to withdrawal time would indicate regional analgesia. […]
# Sprague-Dawley rats (Charles River Laboratories) were lightly anesthetized with urethane and placed with minimal restraint on a heating pad to maintain their body temperature at 37° C. […] Baseline withdrawal latencies were measured by delivering 4 separate stimuli with a resting period of approximately 15 minutes between each stimulus. […] As described above, testing sessions were videotaped and analyzed.
# [6] = intranasal approximately 0.1 IU, first dose
compound,measurement,setting,value
"CC[C@H](C)[C@@H]1NC(=O)[C@H](Cc2ccc(O)cc2)NC(=O)[C@@H](N)CSSC[C@@H](C(=O)N2CCC[C@H]2C(=O)N[C@@H](CC(C)C)C(=O)NCC(N)=O)NC(=O)[C@H](CC(N)=O)NC(=O)[C@H](CCC(N)=O)NC1=O [Oxytocin, Cys-Tyr-Ile-Gln-Asn-Cys-Pro-Leu-Gly]",neuronal response (average nerve impulses per laser pulse) post- vs pre-treatment (FIG. 2),[1],significantly (p<0.05) reduced
same,responses (action potentials per 30 stimuli) after first administration (FIG. 3A),"[2]; intranasal approximately 0.1 IU, electrical stimulation of facial skin",significant reduction in responses
same,time after first administration at which significant reduction in responses began,[2]; [6],10 min
same,"time post treatment until which reduction continued, when responses began to increase",[2]; [6],50 min
same,time to significant reduction in responses after second treatment,[2]; second dose approximately 0.1 IU at approximately 70 minutes after the first,≤ 10 min
C[C@@H](O)[C@@H]1NC(=O)[C@H](CCCCN)NC(=O)[C@@H](Cc2c[nH]c3ccccc23)NC(=O)[C@H](Cc2ccccc2)NC(=O)[C@@H](NC(=O)[C@H](N)Cc2ccccc2)CSSC[C@@H](C(=O)N[C@H](CO)[C@@H](C)O)NC1=O [octreotide],"total number of action potentials during the stimulation period, 10 minutes after administration","[3]; 0.66 Hz, 2 msec, 3x C-fiber threshold, 506 before treatment",408
same,"reduction of total number of action potentials, 10 minutes after administration",[3]; versus before treatment,19.4%
same,response 25 minutes post-treatment,[4],recovered
same,response five minutes post-treatment,[4]; 8 second 425 mA laser stimulus to face,no detectable reduction in response
same,response at 10 minutes post-treatment,"[4]; 8 second 425 mA laser stimulus, baseline 42 spikes",5 spikes
same,reduction of response at 10 minutes post-treatment,[4]; versus pre-treatment baseline,88%
Tyr-Gly-Gly-Phe-Met [met-enkephalin],"analgesic effect, ear withdrawal latency (FIG. 1A)",[5]; laser stimulation of ears,achieved a regional analgesic effect in the head region
same,"systemic analgesic effect, hindpaw withdrawal latency (FIG. 1B)",[5]; laser stimulation of hindpaws,without a systemic analgesic effect at the hindpaw
